According to patent publication US6114537A, “Process for scavenging thiols” (Apotex Inc., priority 1997, dated 2000):
One block for each molecule: values may come before it.

Legend:
Gastric Acid Secretions [1] = assay: Effects on gastric acid secretion in rats, dose-dependent study (histamine-stimulated); type: in vivo, Sprague-Dawley rats; settings: 3, 30, 300 μmol/kg doses, oral, anesthetized rats; histamine 5 mg/kg i.v.
Procedure: Effects of compounds of Formula I on Gastric Acid Secretions in Rats (Dose-dependent study)
Fasted, adult (140-240 g), male, Sprague-Dawley rats were fasted for 24 h from food, but not water, and then treated by oral gavage with 1 to 1.5 mL total volume of 4 different doses (0.3, 3, 30, and 300 μmol/kg) of each compound on different days. Two hours later, rats were anesthetized with a combination of pentobartital and thiopental, the abdomen was opened and the pylorus was ligated, and tracheal, gastric, and peripheral venous canulas were placed. The stomachs were lavaged with 10 mL 0.9% saline every 10 min. for 30 min and the gastric effluent collected in receptacles. Acid output was determined in each gastric effluent sample by back-titration to pH 7.0 using 0.02M NaOH. Then, 5 mL of an […] meal (pH 5.5) was instilled into the stomachs, mixed, and drained after 10 min each time for 2 hours. Acid output was determined in each gastric effluent sample by back-titration to pH 7.0 using 0.02 M NaOH. After measuring basal acid output for at least 30 minutes, acid output was then measured during a 2 h intravenous infusion of histamine (5 mg/kg).

Gastric Acid Secretions [2] = assay: Effects on (meal-stimulated) gastric acid secretion in rats; type: in vivo, Sprague-Dawley rats
Procedure: Effects of compounds of Formula I on Gastric Acid Secretions in Rats
Fasted, adult (140-240 g), male, Sprague-Dawley rats were fasted for 24 h from food, but not water, and then treated by oral gavage with 1 to 1.5 mL total volume of compound of Formula I (300 μmmol/Kg) on different days. Two hours later, rats were anesthetized with a combination of pentobartital and thiopental, the abdomen was opened and the pylorus was ligated, and tracheal, gastric, and peripheral venous canulas were placed. The stomachs were lavaged with 10 mL 0.9% saline every 10 min. for 30 min and the gastric effluent collected in receptacles to determine the basal acid secretion. Acid output was determined in each gastric effluent sample by back-titration to pH 7.0 using 0.02M NaOH. Then, 5 mL of an 8% peptone meal (pH 5.5) was instilled into the stomachs, mixed, and drained after 10 min each time for 2 hours. Acid output was determined in each gastric effluent containing the peptone meal by back-titration to pH 5.5 using 0.02 M NaOH.

[3] = Acid stability in 6 molar hydrochloric acid; type: physicochemical; settings: room temperature
Procedure: Acid stability of 7-methoxy-3-[(4-methoxy-3,5-dimethyl-2-pyridyl)oxomethyl]-1,2,4-thiadiazolo[4,5-a]benzimidazole.
To examine acid stability of the captioned compound, the compound was dissolved in a minimum volume of methanol and the resulting solution was added to a 6 molar solution of hydrochloric acid.

Solubility in water = type: physicochemical
[4] = tested on: gastric acid secretion, isolated gastric glands; assay: In vitro inhibition of gastric acid secretion in isolated mouse gastric glands (14C-aminopyrine accumulation); type: cell-based; settings: 100 μM
Procedure: Acid secretion is measured indirectly by the accumulation of the weak base ^14 C-aminopyrine in the isolated murine gastric glands of mouse. The assay is performed in polypropylene eppendorf tubes containing 0.5 mL of resuspended mouse gastric glands. In addition, tubes contain the tested drug, acid secretagogues (e.g. histamine, di-butyryl cyclic AMP (cAMP), carbachol) and ^14 C-aminopyrine. Tubes are incubated for 60 min. at 37° C. and continuously rotated. The reaction is stopped by centrifugation of the gland suspension for five min. at 1500 g. Supernatant is aspirated leaving the pellet containing intact gastric glands. The pellet is washed extensively and digested overnight in 1 mL of Protosol (Amersham). After neutralisation with acetic acid and addition of scintillation fluid, the radioactivity is counted in a beta-counter (Beckman). The amount of radioactivity trapped in the pellet corresponds directly with the amount of acid being secreted. Each experimental point is done in triplicate. In each experiment, energy independent consumption was estimated with 0.1 mM of dinitrophenol and basal acid secretion in the absence of acid stimulants. These values were then subtracted from corresponding results in order to calculate basal or secretagogue stimulated acid secretion. […] Each experiment is repeated a number of times and all results are expressed as a % of the maximum stimulation.

[5] = Reaction with phenethyl mercaptan (thiol model for the H+/K+-ATPase); type: physicochemical; settings: in methanol
From the text: The reactivity of the compounds in the process of the invention can be illustrated by means of their reaction with phenethyl mercaptan. This is generally illustrated in FIG. 1 of the accompanying drawings, with R of the thiol reagent representing a phenethyl group. In addition, based on prior art (Im et al., J. Biol. Chem., 1985, 260, 4591; Sturm et al., J. Org. Chem., 1987, 52, 4573; Lorentzon et al., Biochim., Biophys. Acta, 1985, 817, 25), phenethylmercaptan is useful as a model for the H^+ /K^+ -ATPase to examine the reactivity of compounds towards thiol group(s) of the enzyme. […] The compound of formula XI reacts with an additional mole of phenethyl mercaptan to produce a compound of formula XII which decomposes to give compounds of formula XIII and XIV.
A minimum of two moles of phenethyl mercaptan for 1 mole of substrate is required to effect the ring opening of 1,2,4-thiadiazolo[4,5-a]benzimidazoles to give the compound of formula XII. In general, the ring opening reaction is slow with two moles of phenethyl mercaptan. The reaction rate increases rapidly when a large excess of phenethyl mercaptan (for example, 25 fold) is used. […] This degradation of the trapped thiol intermediate to form the disulfide has also been observed in the chemical model for the H^+ /K^+ -ATPase (Lindberg et al., J. Med. Chem., 1986, 29, 1329). […]

recovery after stirring in acid ([3]; 48 hours): totally recovered
acid stability [3]: very stable in acid
solubility in water (Solubility in water): limited solubility in water
SMILES: COc1ccc2c(c1)nc1snc(C(=O)c3ncc(C)c(OC)c3C)n12 [7-methoxy-3-[(4-methoxy-3,5-dimethyl-2-pyridyl)oxomethyl]-1,2,4-thiadiazolo[4,5-a]benzimidazole]
inhibition of histamine-stimulated acid secretion (Gastric Acid Secretions [1]): significant (p<0.05) inhibition
inhibition of meal-stimulated acid secretion (Gastric Acid Secretions [2]; 300 μmmol/Kg, rats, oral): significant (p<0.05) inhibition
level of acid output, peptone stimulated (Gastric Acid Secretions [2]; after 1 h, oral gavage, rats, 300 μmmol/Kg, vehicle 160 numol/30 min): 20 μmmol/30 min
suppression of gastric acid secretion in animal model (Gastric Acid Secretions [2]; animal model): active in the suppression of gastric acid secretion

SMILES: CN1CCN(c2nsc3nc4ccccc4n23)CC1.Cl.Cl [3-(4-methyl-1-piperazinyl)-1,2,4-thiadiazolo [4,5-a]benzimidazole dihydrochloride]
inhibition of cAMP stimulated acid secretion ([4]; cAMP stimulated): completely inhibited
inhibition of histamine stimulated acid secretion ([4]; histamine stimulated): completely inhibited

time to complete reaction with phenethyl mercaptan [5]: ≤ 1 min
SMILES: CN(C)c1nsc2nc3ccccc3n12 [Me2 N, 3-(dimethylamino)-1,2,4-thiadiazolo[4,5-a]benzimidazole]

time to complete reaction with phenethyl mercaptan [5]: ≤ 1 min
SMILES: COc1nsc2nc3ccccc3n12 [MeO, 3-methoxy-1,2,4-thiadiazolo[4,5-a]benzimidazole]
